Data set [1] addresses T1, E. coli K12 GDP-mannose dehydratase (GDP-mannose 4,6-dehydratase, GMD), recombinant wild type from pTGK:GMD (Escherichia coli, UniProt P0AC88).
T1 construct: made in house; host or cells: E. coli JM101 (plasmid pTGK:GMD), supernatant of French press lysate
The experiment in a line: Linearity of the GDP-mannose dehydratase assay with time (product inhibition). Type of data set: biochemical. The note with it: linear up to 30 minutes, up to 90% of substrate consumed. On the procedure: (§1) C. Assay of GDP-Mannose Dehydratase
(§2) To assay GDP-mannose dehydratase activity, a reverse phase HPLC assay was developed. […] GDP-mannose dehydratase activity was determined by reacting GDP-mannose dehydratase extract with 480 nmole of GDP-mannose in 50 mM Tris pH 7.5, 0.15 mM NADP^+ (NADP^+ is absolutely required for GDP-mannose dehydratase activity) in a 100 μl reaction volume. Twenty μl of the assay mix was injected over the C18 column.
(§3) By comparing the peak area of the no enzyme control, corresponding to 200 nmole, the decrease in the peak area of GDP-mannose was used to directly measure the activity of GDP-mannose dehydratase by the following formulae: (No enzyme peak area)−(enzyme peak area)=(Peak area of GDP-mannose consumed) 1. (Peak area of GDP-mannose consumed)/(No enzyme peak area)=% of 200 nmole GDP-mannose consumed. 2.
Samples were thawed and immediately injected over an aquasil reverse phase HPLC column.

Data set [2] has as its target T2, GDP-mannose dehydratase (Escherichia coli, UniProt P0AC88).
T2 construct: made in house; host or cells: E. coli JM101 (plasmid pTGK:GMD), French-press lysate supernatant
The experiment in a line: GDP-mannose dehydratase reverse phase HPLC activity assay. The class given is biochemical, E. coli. The note with it: for effect on GDP-mannose dehydratase activity: concentrations ranging from 1-20 mM. On the procedure: (§4) To assay GDP-mannose dehydratase activity, a reverse phase HPLC assay was developed. […] […] Twenty μl of the assay mix was injected over the C18 column.
as §3
(§5) To control for any carryover loss upon HPLC injection, 10 nmole of CTP was added to the sample to be analyzed.

For data set [3], the target named is T1, E. coli K12 GDP-mannose dehydratase (GDP-mannose 4,6-dehydratase, GMD), recombinant wild type from pTGK:GMD. As to the kind of experiment: Inhibition of GDP-mannose dehydratase (GMD) by GDP-fucose, reverse phase HPLC assay (FIG. 5). Type of data set: biochemical. On the procedure:
as §1, §2, §3, §5
Since GDP-mannose dehydratase represents the first committed step in GDP-fucose biosynthesis it is possible that GDP-fucose is a feedback inhibitor of the enzyme. To determine if this is true, the standard assay was performed in the presence of increasing amounts of GDP-fucose. […]

For data set [4], the target named is T3, GDP-mannose dehydratase (Sus scrofa, UniProt F1RX12).
T3 sequence (F1RX12 1-372): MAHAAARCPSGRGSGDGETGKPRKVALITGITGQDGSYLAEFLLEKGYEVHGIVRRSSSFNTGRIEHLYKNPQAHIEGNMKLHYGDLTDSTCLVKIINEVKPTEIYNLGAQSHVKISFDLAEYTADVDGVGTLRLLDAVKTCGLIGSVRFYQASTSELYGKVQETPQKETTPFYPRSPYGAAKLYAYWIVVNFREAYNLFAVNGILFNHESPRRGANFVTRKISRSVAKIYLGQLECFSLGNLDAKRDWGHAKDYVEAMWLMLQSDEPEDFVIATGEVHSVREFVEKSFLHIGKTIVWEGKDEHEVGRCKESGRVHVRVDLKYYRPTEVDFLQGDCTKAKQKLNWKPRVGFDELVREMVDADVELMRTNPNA
The note with it: cited from earlier work.

The test system of data set [5] is GDP-mannose dehydratase. To be noted: cited from earlier work.
The target of data set [6] is T4, fucosyltransferase V (Homo sapiens, UniProt Q11128).
T4 sequence (Q11128 1-374): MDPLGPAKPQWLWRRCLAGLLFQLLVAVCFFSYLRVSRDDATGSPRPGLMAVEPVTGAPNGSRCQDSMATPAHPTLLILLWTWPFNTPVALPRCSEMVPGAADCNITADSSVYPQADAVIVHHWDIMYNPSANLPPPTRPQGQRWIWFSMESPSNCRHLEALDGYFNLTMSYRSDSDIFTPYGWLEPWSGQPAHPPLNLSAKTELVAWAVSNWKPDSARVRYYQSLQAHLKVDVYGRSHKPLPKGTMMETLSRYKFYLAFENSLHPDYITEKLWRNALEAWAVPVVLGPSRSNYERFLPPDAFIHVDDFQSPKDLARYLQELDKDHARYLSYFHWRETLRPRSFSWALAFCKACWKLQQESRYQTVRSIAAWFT
To be noted: literature statement; cited from earlier work.

The test system of data set [7] is fucosyltransferases. To be noted: cited from earlier work.
Data set [8] addresses T5, fucosyltransferase V (FT V) (Homo sapiens, UniProt Q11128).
T5 construct: printed for the preparative synthesis
T5 sequence (Q11128 1-374): T4 sequence (Q11128 1-374)
As to the kind of experiment: Inhibition of fucosyltransferase V. Type of data set: biochemical. To be noted: compared with GDP.

In data set [9] the target is YEF B (Escherichia coli, UniProt P32055, E255D/L256V). To be noted: for YEF B Activity %: none = 100; for effect on YEF B activity: varying concentrations of metal ion. On the procedure: To assay YEF B activity, a reverse phase HPLC assay was developed. An Aquesil C18 reverse phase column was set up in-line on a Beckman 126 solvent monitor. The column was eluted isocratically with 0.5M KH2PO4 over twenty minutes with a flow rate of 1 ml/min. A photodiode array detector was employed to monitor the elution scanning the 210-300 nm wavelength range.
YEF B, sequence (P32055 whole entry E255D/L256V): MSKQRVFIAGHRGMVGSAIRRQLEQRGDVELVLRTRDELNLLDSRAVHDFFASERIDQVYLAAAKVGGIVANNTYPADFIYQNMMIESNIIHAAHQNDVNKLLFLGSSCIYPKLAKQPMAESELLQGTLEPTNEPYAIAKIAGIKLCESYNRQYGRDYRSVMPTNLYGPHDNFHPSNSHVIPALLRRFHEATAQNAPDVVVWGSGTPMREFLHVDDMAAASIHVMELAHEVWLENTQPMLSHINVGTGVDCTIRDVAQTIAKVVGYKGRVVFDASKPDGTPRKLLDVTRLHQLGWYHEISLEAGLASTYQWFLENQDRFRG
A coupled assay was employed to assay YEF B activity. This was required since its substrate, GDP-4-keto-6-deoxymannose, is unstable and not commercially available. Twenty mUnit of GDP-mannose dehydratase was allowed to react with 480 nMole of GDP-mannose for 20 minutes under standard assay conditions as previously. […] The reaction was allowed to proceed for ten minutes at which point the reaction was stopped by freezing on dry ice. After thawing 10 μl aliquots were analyzed by reverse phase HPLC analysis. The amount of GDP fucose formed was calculated by analyzing a separate assay mix in the absence of GDP-mannose dehydratase to yield a 100% value for the absorption peak of GDP-mannose. […] to yield percentage of GDP-fucose formed. (% GDP-fucose)(nMole GDP-mannose in reaction)=nMole GDP-fucose formed.
The assay pH was varied from 6.5 to 8.0 using MES and Tris as buffers. The standard assay mix contained 20 mUnit GDP-mannose dehydratase, […] GDP-mannose, […], 10 mUnit glucose dehydrogenase (to recycle NADPH utilized by YEF B), 50 mM buffer at the appropriate pH and YEF B at appropriate dilution. The reaction was allowed to proceed for 15 minutes at 37° C. and immediately frozen on dry ice to stop the reaction. Ten μl aliquots were removed after thawing and analyzed by reverse phase HPLC.

Data set [10] has as its target T1, E. coli K12 GDP-mannose dehydratase (GDP-mannose 4,6-dehydratase, GMD), recombinant wild type from pTGK:GMD. As to the kind of experiment: Cofactor (NADP+) dependence of GDP-mannose dehydratase (Table 5). The class given is biochemical. On the procedure:
as §1, §2, §3, §5

In data set [11] the target is T6, GDP-mannose dehydratase (Escherichia coli, UniProt P0AC88).
T6 construct: made in house; host or cells: E. coli JM101 (plasmid pTGK:GMD), French-press lysate supernatant
T6 sequence (P0AC88 whole entry, looked up): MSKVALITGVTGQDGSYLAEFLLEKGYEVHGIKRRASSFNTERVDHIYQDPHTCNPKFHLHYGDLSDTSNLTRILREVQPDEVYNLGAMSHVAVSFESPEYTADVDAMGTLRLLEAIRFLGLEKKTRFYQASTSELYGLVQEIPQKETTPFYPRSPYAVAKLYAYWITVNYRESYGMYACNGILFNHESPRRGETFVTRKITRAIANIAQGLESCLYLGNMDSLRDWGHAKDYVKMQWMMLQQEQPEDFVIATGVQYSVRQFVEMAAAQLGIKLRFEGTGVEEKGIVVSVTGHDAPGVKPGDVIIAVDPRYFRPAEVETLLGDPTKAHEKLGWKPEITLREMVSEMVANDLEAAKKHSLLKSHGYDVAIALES
The experiment in a line: GDP-mannose dehydratase reverse phase HPLC activity assay. The class given is biochemical, E. coli. To be noted: 10 mUnit alkaline phosphatase included in the assay. On the procedure: as §4, §3, §5

Consider twelve molecules from patent US7247456B2, “Preparation of fucosylated oligosaccharides” (Neose Technologies, Inc., priority 1998, dated 2007).

“Also recorded” adds a separate entry of the source. Read-outs that look alike come from different tables or passages of the source.

As for `C[C@H]1O[C@H](OP(=O)(O)OP(=O)(O)OC[C@H]2O[C@@H](n3cnc4c(=O)[nH]c(N)nc43)[C@H](O)[C@@H]2O)[C@@H](O)[C@@H](O)C1=O` [GDP-4-keto-6 deoxymannose, GDP-4-keto-6-deoxymannose], the “inhibition of GDP-mannose dehydratase by the product” value in data set [1] is reported as “does not inhibit the enzyme”.

`C[C@H]1O[C@H](OP(=O)(O)OP(=O)(O)OC[C@H]2O[C@@H](n3cnc4c(=O)[nH]c(N)nc43)[C@H](O)[C@@H]2O)[C@@H](O)[C@@H](O)C1=O` [GDP-4-keto-6-deoxymannose]: in data set [2] (assay linear up to 90% of substrate consumed), the “inhibition of GDP-mannose dehydratase by its product” value was “does not inhibit the enzyme”.

Take `C[C@@H]1O[C@H](OP(=O)(O)OP(=O)(O)OC[C@H]2O[C@@H](n3cnc4c(=O)[nH]c(N)nc43)[C@H](O)[C@@H]2O)[C@@H](O)[C@H](O)[C@@H]1O` [GDP-fucose]: the IC50 is 40 µM in data set [3] (restated for the 0.2 kG scale production, quantity not given, read-out: inhibitor concentration ("40 μM inhibitor", see FIG. 5)) and roughly 40 µM in [3] (standard assay: 480 nmole GDP-mannose, 50 mM Tris pH 7.5, 0.15 mM NADP+, 100 μl, increasing amounts of GDP-fucose, read-out: IC50). Further, the “catalytic activity of GDP-mannose dehydratase remaining” value in data set [4] (at 50 μM GDP-fucose) was 10%. In data set [5] (at 50 μM GDP-fucose), the “remaining catalytic activity of GDP-mannose dehydratase” value is on record as 10%. For the same molecule, the “inhibition of GDP-mannose dehydratase” value in data set [5] is “strongly inhibited”.

For the molecule `Nc1nc2c(ncn2[C@@H]2O[C@H](COP(=O)(O)OP(=O)(O)O)[C@@H](O)[C@H]2O)c(=O)[nH]1` [GDP], the inhibition of fucosyltransferases result is listed as “inhibit; also recorded: potent inhibitor” in data set [6] and “known to inhibit” in [7]. In addition, the “inhibition of GDP-mannose dehydratase” value in data set [4] (literature statement) is given as “inhibit”; in [5], “known to inhibit”.

In the case of `Nc1nc2c(ncn2[C@@H]2O[C@H](COP(=O)(O)OP(=O)(O)OP(=O)(O)O)[C@@H](O)[C@H]2O)c(=O)[nH]1` [GTP], in data set [8], the “inhibitory potency relative to GDP (fold less potent)” value was found to be 10 ×.

For `[Cl-].[Cl-].[Mg+2]` [MgCl2], the “YEF B Activity %” value in data set [9] (1 mM metal ion) and in data set [9] (10 mM metal ion) was 110% each time. In addition, the “effect on YEF B activity” value in data set [9] is recorded as “somewhat stimulatory”. The “% GDP-mannose Dehydratase Activity mUnit/ml” value in data set [2] (1 mM metal ion) was found to be 560 mUnit/ml; in data set [2] (10 mM metal ion), 610 mUnit/ml; in data set [2] (20 mM metal ion) it was 590 mUnit/ml. Further, the “effect on GDP-mannose dehydratase activity” value in data set [2] is given as “essentially no effect”.

Consider `[Cl][Mn][Cl]` [MnCl2], for which the “YEF B Activity %” value in data set [9] (1 mM metal ion) is 60%; in data set [9] (10 mM metal ion), 25%. Besides, the “effect on YEF B activity” value in data set [9] is reported as “severely inhibited in a dose dependent manner”. For the same molecule, the “% GDP-mannose Dehydratase Activity mUnit/ml” value amounted to 580 mUnit/ml in [2] (1 mM metal ion), 570 mUnit/ml in data set [2] (10 mM metal ion) and 620 mUnit/ml in [2] (20 mM metal ion). Further, in [2], the “effect on GDP-mannose dehydratase activity” value is listed as “essentially no effect”.

On to `NC(=O)c1ccc[n+]([C@@H]2O[C@H](COP(=O)(O)OP(=O)(O)OC[C@H]3O[C@@H](n4cnc5c(N)ncnc54)[C@H](O)[C@@H]3O)[C@@H](O)[C@H]2O)c1` [NAD, NAD^+], for which, in data set [10] (cofactor at 1 mM), the “% GDP-mannose dehydratase activity” value is “not detected”. In data set [10] (in place of NADP+), the “substitution for NADP+ as cofactor” value was “will not substitute for NADP^+”.

As for `NC(=O)c1ccc[n+]([C@@H]2O[C@H](COP(=O)(O)OP(=O)(O)OC[C@H]3O[C@@H](n4cnc5c(N)ncnc54)[C@H](OP(=O)(O)O)[C@@H]3O)[C@@H](O)[C@H]2O)c1` [NADP, NADP^+], in [10] (cofactor at 1 mM), the activity at 1000 µM stood at 100%.

As to `NC(=O)c1ccc[n+]([C@@H]2O[C@H](COP(=O)(O)OP(=O)(O)OC[C@H]3O[C@@H](n4cnc5c(N)ncnc54)[C@H](OP(=O)(O)O)[C@@H]3O)[C@@H](O)[C@H]2O)c1` [NADP], the “% GDP-mannose dehydratase activity” value in data set [2] (0.15 mM cofactor) and in data set [2] (1 mM cofactor) was 100% in each case.

Turning to `NC(=O)c1ccc[n+]([C@@H]2O[C@H](COP(=O)(O)OP(=O)(O)OC[C@H]3O[C@@H](n4cnc5c(N)ncnc54)[C@H](O)[C@@H]3O)[C@@H](O)[C@H]2O)c1` [NAD], the “% GDP-mannose dehydratase activity” value in data set [2] (1 mM cofactor) was “not detected”.

On to Alkaline Phosphatase, for which the “% GDP-mannose dehydratase activity” value in data set [11] is listed as “not detected”; in data set [11] (listed as alkaline phosphatase), “severely attenuated”.
